Experimental data: patent US9913916B2, “Asymmetric bifunctional silyl monomers and particles thereof as prodrugs and delivery vehicles for pharmaceutical, chemical and biological agents” (The University of North Carolina at Chapel Hill, priority 2010, dated 2018)

Assay type: physicochemical
Experimental: A model degradation of an ABS pro-drug of gemcitabine attached via a di-isopropyl silyl ether linkage (iPr-GEM) was conducted.
Asymmetric bifunctional silyl ether pro-drugs were synthesized and analyzed as potential materials for controlled drug delivery in nanoparticles. Using one-step synthesis, numerous pro-drugs from the chemotherapeutics camptothecin, dasatinib, and gemcitabine were prepared. These ABS pro-drugs were placed under acidic conditions, such as those found […], and subsequent to degradation of the reversible covalent linkage(s), the pro-drug reverted back to the original active form of the chemotherapeutic. […] The rate of release increased as the steric bulk of the substituent on the Si atom decreased; Rate of Release: Et-GEM>iPr-GEM>>tBu-GEM). […] These ABS pro-drugs can be incorporated into nanoparticles and medical devices capable of releasing drugs in a controlled and tunable fashion.

Row | Compound | degradation of silyl ether linkage on exposure to acid
1 | C=CC(=O)OCCO[Si](OC[C@H]1O[C@@H](n2ccc(N)nc2=O)C(F)(F)[C@@H]1O)(C(C)C)C(C)C [iPr-GEM, Diisopropyl ABS of Gemcitabine] | acid sensitive and reverts back to the original starting materials
2 | C=CC(=O)OCCO[Si](CC)(CC)O[C@]1(CC)C(=O)OCc2c1cc1n(c2=O)Cc2cc3ccccc3nc2-1 [Et-CPT, Diethyl ABS of Camptothecin] | degraded to yield both unmodified camptothecin and HEA
